For series [1] the following is noted: fragranced soaps, six months of storage; cited from earlier work.
Another series in a line: physchem. As to conditions: toluene.
The conditions of series [2]: 0 min.
Method: (§1) The disappearance of both compounds is measured by gas chromatography using a six foot long, one-eighth inch diameter column having 15 percent by weight polyethylene glycol with an average molecular weight of 20,000 (Carbowax-20 M, Trademark) on particles of 80 by 100 mesh diatomaceous earth (Chromasorb W, Trademark) and using helium feed at 28 cc. per minute while heating from 100° to 210° C. at 8° per minute. Ten percent solutions of each compound in toluene are stirred at equal rates in the presence of air at ambient temperatures.
For series [3] the following is noted: cited from earlier work.
The next series is described as follows: Water solubility. As to conditions: in words. The format is physicochemical.

Structures are written as SMILES. Where two headings read alike, the source gives them in different places.

What is called share remaining is the share of the starting amount still present when the sample was taken. The term half-life denotes how long it takes for the measured level to halve.

Method for physchem: as §1

As for `CC=Cc1ccc(OC(C)OCC)c(OC)c1` (stereo not drawn) [1'-ethoxyethyl ether of isoeugenol], the stability to discoloration entry in series [1] was “stable to discoloration”.
Take `CCOC(C)OC1=C(C)OC(C)C1=O` (stereo not drawn) [2,5-Dimethyl-4-[(1'-ethoxy)ethoxy]-3(2H)-furanone]: in “physchem”, the fraction remaining at 17 h was 95%, the amount remaining at 41 h amounted to 93%, the fraction remaining at 116 h is 44% and the fraction remaining at 137 h was found to be 38%. Besides, the “% Remaining” value in series [2] was 100%.
As to `CC1=C(O)C(=O)C(C)O1` (stereo not drawn) [Pineapple Ketone, 2,5-dimethyl-4-hydroxy-3(2H)-furanone], in series [3] (pH 4), the half-life is recorded as 120 days. Besides, the half-life in series [3] (pH 7) is 12 days. In “physchem”, the fraction remaining at 15 h worked out at 24%, the amount remaining at 41 h worked out at 18%, the amount remaining at 115 h was found to be 6% and the share remaining at 138 h came to 4%. Further, the “% Remaining” value in series [2] turned out to be 100%. Further, the water solubility entry in the series “Water solubility” is listed as “water soluble”.
As for `CC=Cc1ccc(O)c(OC)c1` [isoeugenol], the stability to discoloration entry in series [1] is “causes discoloration”.

The values are drawn from patent US4590284A, “Pineapple ketone 1'-alkoxyalkyl derivatives” (Hercules Incorporated, priority 1985, dated 1986).
